The series concerns CCRIS mutagenicity, Ames/micronucleus/aberration tests. Kind of series: CCRIS mutagenicity studies.
Where [1] appears, read: Test System: AMES SALMONELLA TYPHIMURIUM, Strain/Indicator: TA98, Metabolic Activation: RAT, LIVER, S-9, PHENOBARBITAL, Method: STANDARD PLATE.
Where [2] appears, read: Test System: AMES SALMONELLA TYPHIMURIUM, Strain/Indicator: TA98, Metabolic Activation: NONE, Method: STANDARD PLATE.
The mark [3] stands for this setting: Test System: AMES SALMONELLA TYPHIMURIUM, Strain/Indicator: TA100, Metabolic Activation: NONE, Method: STANDARD PLATE.

The structures appear in SMILES notation. Calls of active or inactive are those of the source. No rule for the calls is given here.

For `Cc1ccc2cc3c(ccc4ccccc43)c3c2c1CC3`, the mutagenic call (End Point: In vivo mutagenicity, Test System: Lung, Species: Rat, Strain/Sex: Big Blue/male, Route: Intraperitoneal) is “active; positive (11-fold increase in mutant frequency and an increase in transversion t”; the mutagenic call (Test System: AMES SALMONELLA TYPHIMURIUM, Strain/Indicator: TA98, Metabolic Activation: RAT, BLADDER, S-9, PCB, Method: FLUCTUATION TEST) was “inactive; negative”; the mutagenic call under setting [1] is “active; positive”; the mutagenic call (Test System: AMES SALMONELLA TYPHIMURIUM, Strain/Indicator: TA100, Metabolic Activation: MOUSE, LIVER, MICROSOMES, BENZO[E]PYRENE AND TCDD, Method: STANDARD PLATE) is “active; positive”; the mutagenic call (Test System: AMES SALMONELLA TYPHIMURIUM, Strain/Indicator: TA100, Metabolic Activation: RAT, BLADDER, S-9, PCB, Method: FLUCTUATION TEST) was “active; positive”; the mutagenic call (Test System: AMES SALMONELLA TYPHIMURIUM, Strain/Indicator: TA100, Metabolic Activation: RAT, LIVER, S-9, AROCLOR 1254, Method: STANDARD PLATE) was “active; positive”. Further, the mutagenic call is “active; positive” (Test System: AMES SALMONELLA TYPHIMURIUM, Strain/Indicator: TA1535, Metabolic Activation: RAT, LIVER, S-9, AROCLOR 1254, Method: STANDARD PLATE); “active; positive” (Test System: AMES SALMONELLA TYPHIMURIUM, Strain/Indicator: TA1537, Metabolic Activation: RAT, LIVER, S-9, AROCLOR 1254, Method: STANDARD PLATE); “active; positive” (Test System: AMES SALMONELLA TYPHIMURIUM, Strain/Indicator: TA1538, Metabolic Activation: MOUSE, LIVER, S-9, PHENOBARBITAL, Method: PREINCUBATION); “active; positive” (Test System: AMES SALMONELLA TYPHIMURIUM, Strain/Indicator: TA1538, Metabolic Activation: RAT, LIVER, S-9, AROCLOR 1254, Method: STANDARD PLATE); “active; positive” (Test System: AMES SALMONELLA TYPHIMURIUM, Strain/Indicator: TA1538, Metabolic Activation: RAT, LIVER, S-9, PHENOBARBITAL, Method: STANDARD PLATE); “active; positive (animals administered an onion (1% or 5%) diet for 1 month before the m” (Test System: Ames Salmonella typhimurium, Strain/Indicator: TA98, Metabolic Activation: None, Method: Standard plate). Besides, the mutagenic call was “active; positive (animals administered an onion (1% or 5%) diet for 1 month before the m” (Test System: Ames Salmonella typhimurium, Strain/Indicator: TA98, Metabolic Activation: S-9, Method: Standard plate); “active; positive (animals administered an onion (1% or 5%) diet for 1 month before the m” (Test System: Ames Salmonella typhimurium, Strain/Indicator: TA100, Metabolic Activation: None, Method: Standard plate); “active; positive (animals administered an onion (1% or 5%) diet for 1 month before the m” (Test System: Ames Salmonella typhimurium, Strain/Indicator: TA100, Metabolic Activation: S-9, Method: Standard plate); “active; positive” (Test System: CHINESE HAMSTER OVARY, Strain/Indicator: CHO-K1-BH4 (HGPRT), Metabolic Activation: RAT, LIVER, S-9, AROCLOR, Method: SUSPENSION/PLATE); “active; positive” (Test System: CHINESE HAMSTER V-79, Strain/Indicator: V-79/6-THIOGUANINE, Metabolic Activation: RAT, LIVER, S-9, PHENOBARBITAL, Method: STANDARD PLATE); “active; positive” (Test System: CHINESE HAMSTER V-79, Strain/Indicator: V-79/8-AZAGUANINE, Metabolic Activation: CELL-MEDIATED, Method: STANDARD PLATE). The mutagenic call was “inactive; negative” (Test System: E. COLI, Strain/Indicator: WP2 UVRA, Metabolic Activation: HAMSTER, LIVER, S-9, AROCLOR 1254, Method: STANDARD PLATE); “inactive; negative” (Test System: E. COLI, Strain/Indicator: WP2 UVRA, Metabolic Activation: HAMSTER, LIVER, S-9, Method: STANDARD PLATE); “inactive; negative” (Test System: E. COLI, Strain/Indicator: WP2 UVRA, Metabolic Activation: MOUSE, LIVER, S-9, AROCLOR 1254, Method: STANDARD PLATE); “inactive; negative” (Test System: E. COLI, Strain/Indicator: WP2 UVRA, Metabolic Activation: MOUSE, LIVER, S-9, Method: STANDARD PLATE); “inactive; negative” (Test System: E. COLI, Strain/Indicator: WP2 UVRA, Metabolic Activation: NONE, Method: STANDARD PLATE); “inactive; negative” (Test System: E. COLI, Strain/Indicator: WP2 UVRA, Metabolic Activation: RAT, LIVER, S-9, AROCLOR 1254, Method: STANDARD PLATE). Besides, the mutagenic call (Test System: E. COLI, Strain/Indicator: WP2 UVRA, Metabolic Activation: RAT, LIVER, S-9, Method: STANDARD PLATE) is “inactive; negative”; the mutagenic call (Test System: UDS HUMAN FIBROBLASTS, Strain/Indicator: THY INCORP (NON-S-PHASE), Metabolic Activation: NONE, Method: LIQUID SCINTILLATION COUNTING) was “active; positive”; the mutagenic call (Test System: UDS RODENT HEPATOCYTES, Strain/Indicator: THY INCORP (NON-S-PHASE), Method: LIQUID SCINTILLATION COUNTING) was “active; positive”; the mutagenic call (Test System: UDS RODENT PRIMARY CELLS, Strain/Indicator: THY INCORP (NON-S-PHASE), Metabolic Activation: NONE, Method: AUTORADIOGRAPHY) is “active; positive”.
As to `N=C(N)c1ccc(-c2cc3ccc(C(=N)N)cc3[nH]2)cc1`, the mutagenic call runs as follows: under setting [2], “inactive; negative”; under setting [1], “inactive; negative”; under setting [3], “inactive; negative”; (Test System: AMES SALMONELLA TYPHIMURIUM, Strain/Indicator: TA100, Metabolic Activation: RAT, LIVER, S-9, PHENOBARBITAL, Method: STANDARD PLATE) “inactive; negative”; (Test System: E. COLI, Strain/Indicator: WP2, Metabolic Activation: NONE, Method: PREINCUBATION) “inactive; negative”.
With `S=C1SSC2=NCCN12`, the mutagenic call runs as follows: (Test System: AMES SALMONELLA TYPHIMURIUM, Strain/Indicator: TA97, Metabolic Activation: NONE, Method: STANDARD PLATE) “inactive; negative”; (Test System: AMES SALMONELLA TYPHIMURIUM, Strain/Indicator: TA97, Metabolic Activation: RAT, LIVER, S-9, AROCLOR 1254, Method: STANDARD PLATE) “inactive; negative”; under setting [2], “inactive; negative”; (Test System: AMES SALMONELLA TYPHIMURIUM, Strain/Indicator: TA98, Metabolic Activation: RAT, LIVER, S-9, AROCLOR 1254, Method: STANDARD PLATE) “inactive; negative”; under setting [3], “inactive; negative”.
As to `CC1(C)CO1`, the mutagenic call is “active; positive” (Test System: AMES SALMONELLA TYPHIMURIUM, Strain/Indicator: TA100, Metabolic Activation: NONE, Method: FLASK ASSAY); “active; positive” (Test System: AMES SALMONELLA TYPHIMURIUM, Strain/Indicator: TA100, Metabolic Activation: NONE, Method: FLASK VAPORIZATION); “active; positive” (Test System: AMES SALMONELLA TYPHIMURIUM, Strain/Indicator: TA100, Metabolic Activation: RAT, LIVER, S-9, AROCLOR 1254, Method: FLASK ASSAY); “active; positive” (Test System: AMES SALMONELLA TYPHIMURIUM, Strain/Indicator: TA100, Metabolic Activation: RAT, LIVER, S-9, AROCLOR 1254, Method: FLASK VAPORIZATION); “active; positive” (Test System: AMES SALMONELLA TYPHIMURIUM, Strain/Indicator: TA102, Metabolic Activation: NONE, Method: FLASK ASSAY); “active; positive” (Test System: AMES SALMONELLA TYPHIMURIUM, Strain/Indicator: TA102, Metabolic Activation: RAT, LIVER, S-9, AROCLOR 1254, Method: FLASK ASSAY). Moreover, the mutagenic call (Test System: AMES SALMONELLA TYPHIMURIUM, Strain/Indicator: TA1535, Metabolic Activation: NONE, Method: FLASK ASSAY) was “active; positive”; the mutagenic call (Test System: AMES SALMONELLA TYPHIMURIUM, Strain/Indicator: TA1535, Metabolic Activation: NONE, Method: FLASK VAPORIZATION) is “active; positive”; the mutagenic call (Test System: AMES SALMONELLA TYPHIMURIUM, Strain/Indicator: TA1535, Metabolic Activation: RAT, LIVER, S-9, AROCLOR 1254, Method: FLASK ASSAY) is “active; positive”; the mutagenic call (Test System: AMES SALMONELLA TYPHIMURIUM, Strain/Indicator: TA1535, Metabolic Activation: RAT, LIVER, S-9, AROCLOR 1254, Method: FLASK VAPORIZATION) was “active; positive”.

(Values after PubChem BioAssay AID1259407 (Chemical Carcinogenesis Research Information System (CCRIS), 2018).)
